Assay results from US9326503B2, “Biocide compositions comprising branched alkyl polyglycosides” (Cognis IP Management GmbH, priority 2009, dated 2016).

How the values were obtained:
[1] = system: barnyard grass and green foxtail; assay: Uptake of radio-labelled nicosulfuron with adjuvant, compared with crop oil concentrate; assay type: in vivo; settings: adjuvant rate giving the same nicosulfuron uptake as COC (uptake with COC set to 100%); nicosulfuron (ACCENT WDG 75) 0.031% w/v
Method: A separate study was undertaken to compare the performance of the invented composition compared with an industry standard, more particularly a crop oil concentrate (COC), on the uptake of nicosulfuron on barnyard grass and green foxtail. Nicosulfuron as ACCENT® WDG 75 was used at 0.031% w/v (46.7 g active ingredient/150 l/ha). Radio-labelled nicosulfuron (50 mCi/mmol) was added to freshly prepared treatment solution 0.5 h prior to use. The ^14C nicosulfuron comprised 7% by mass. Spray solutions with nicosulfuron alone i.e. without adjuvant, were formulated in 50% acetone. All additives were used at the same concentration. The uptake using COC (Example C3) was set to 100%, therefore the data in Table 2, below, reflects the reduction in concentration of the other adjuvants in order to achieve the same level of uptake for COC. In other words, one can reduce the amount of adjuvant by 75-80% in order to achieve the same effects compared to the use of COC.

Asian Soybean Rust = assay: Field trial in Brazil: soybean crop yield under Asian Soybean Rust, fungicide with or without adjuvant; assay type: in vivo; settings: where added, 150 ml/ha
Method: Field trials were conducted in Brazil. Two standard biocide compositions from the market were applied to soybean crops: OPERA® (BASF) contains 5% w/w epoxiconazole and 13.3% w/w pyraclostrobin, the former is a preventive and curative fungicide, the latter a protectant, curative, and translaminar fungicide. FOLICUR® (Bayer CropScience) contains tebuconazole, a fungicide with protective, curative, and eradicant properties. The two compositions were applied at full recommended rate and at a 50% level. These experiments are compared to similar treatment of the plants adding in both cases adjuvant mixtures at a concentration of 150 ml/ha.

[2] = FOLICUR (tebuconazole) at full recommended rate
[3] = FOLICUR at 50% of the full recommended rate
[4] = OPERA (5% epoxiconazole, 13.3% pyraclostrobin) at full recommended rate
[5] = OPERA at 50% of the full recommended rate

Row | Substance | Adjuvant rate [1] [% v/v] | Soybean Crop Yield influenced by Asian Soybean Rust - relative to control (=100), FOLICUR (Asian Soybean Rust; [2]) | Soybean Crop Yield influenced by Asian Soybean Rust - relative to control (=100), FOLICUR (Asian Soybean Rust; [3]) | Soybean Crop Yield influenced by Asian Soybean Rust - relative to control (=100), OPERA (Asian Soybean Rust; [4]) | Soybean Crop Yield influenced by Asian Soybean Rust - relative to control (=100), OPERA (Asian Soybean Rust; [5])
1 | 2-Octyldodecyl polyglucoside (DP 1.7) [Example 1] | 0.24 | 141 | 161 | 161 | 137
2 | Isostearyl polyglucoside (DP 1.5) [Example 2] | 0.22 | 135 | 156 | 153 | 137
3 | Cetearyl polyglucoside (DP 1.5) [C1, reference compound] | 0.19 | 127 | 149 | 150 | 129
